Legend:
M. tuberculosis = experiment: Lung granuloma formation and immune response analysis in both tuberculosis mouse models; assay type: in vivo, Mycobacterium tuberculosis
[1] = system: M. tuberculosis XDR strain; assay type: in vivo, Mycobacterium tuberculosis; details: latent model, 30 mg/kg
[2] = system: M. tuberculosis XDR strain; assay type: cell-based, Mycobacterium tuberculosis; details: infected Raw 264.7 cells, 3 days; effect only at this very high concentration
[3] = system: M. tuberculosis XDR strain; assay type: in vivo, Mycobacterium tuberculosis
M. tuberculosis H37Rv = experiment: In vitro macrophage infection model, H37Rv, CFU analysis; assay type: cell-based, Mycobacterium tuberculosis; details: infected Raw 264.7 cells, 3 days

Compound	granuloma formation in the lungs compared to infected control mice (M. tuberculosis)	effect on number of M. tuberculosis in the lungs [1]	concentration with inhibitory effect against XDR strains [2] [µg/mL]	lung species diversity (Shanon-based alpha diversity) ([3]; in vivo)	occupancy of M. tuberculosis in the lungs (16S rRNA gene-based lung metagenomics) compared to the infected control group ([3]; in vivo)	survival rate ([3]; in vivo) [%]	concentration showing significant effects against H37Rv (M. tuberculosis H37Rv)	mortality / survival until the end of the experiment ([3]; Balb/c mice, high-dose XDR lung inhalation, probiotics by lung inhalation)
NNC(=O)c1ccncc1 [INH, isoniazid]	no significant reduction	significantly reduced	100	worsened the severity	did not decrease	16.6	1 μg/mL or 10 μg/mL	
CO[C@H]1/C=C/O[C@@]2(C)Oc3c(C)c(O)c4c(O)c(c(/C=N/N5CCN(C)CC5)c(O)c4c3C2=O)NC(=O)/C(C)=C\C=C\[C@H](C)[C@H](O)[C@@H](C)[C@@H](O)[C@@H](C)[C@H](OC(C)=O)[C@@H]1C [RIF, rifampicin]			100			32.2		
Lactobacillus								died

— US20250127828A1, “BACILLUS […] AND COMPOSITION FOR PREVENTING, TREATING, OR IMPROVING TU[…] SAME” (priority 2023, published 2025)
